Entries after “also recorded” stand apart in the source; their conditions may differ.
Columns and labels:
cyclooxygenase enzymes = conditions: cited from earlier work
C57/BL6J mice = test: NIAAA ethanol model (10 days ethanol in LDLD + binge) of alcoholic liver injury; assay type: in vivo, mouse; conditions: for Basophils / WBC / eosinophils, % of WBC / lymphocytes, % of WBC / monocytes, % of WBC: 0.5 g/L in LDLD; for AST: serum
Method: 2-HOBA and ethanol were concurrently administered to C57/BL6J mice to establish the efficacy of 2-HOBA in mitigating ethanol-mediated liver dysfunction (increased AST and ALT), reducing γ-KA formation, favorably altering immune responses and stimulating beneficial intracellular signaling pathways. […] 2-HOBA (0.5 g/L in Lieber-DeCarli liquid diet, LDLD) was administered to mice prior to ethanol treatment for 14 days to examine 2-HOBA efficacy in mitigating liver injury. Ethanol (5% v/v) was administered using the NIAAA model (10 days ethanol in LDLD+binge). […] White blood cell and lymphocyte cell counts were reduced while eosinophil and basophil counts were increased with ethanol relative to maltodextrin feeding (Table 1), consistent with other reports of alcoholic liver injury. Such responses were not observed in the presence of 2-HOBA.
An additional cohort of mice were administered a 14-day pretreatment of 2-HOBA (1.0 g/L) prior to administration of ethanol using the NIAAA model. Mice administered ethanol consumed less food and consequently weighed ˜2.5 g less than maltodextrin-fed controls at the end of study.

HepG2 cells = conditions: varying concentrations of H2O2; cited from earlier work
DIAMOND mice = test: DIAMOND mouse model of NAFLD/NASH; assay type: in vivo; conditions: 1 g/L in drinking water, Western diet
Method: Twelve 8-wk old male DIAMOND mice were placed on ad libitum high fat diet (Harlan—ENVIGO TD.88317) and water containing glucose (18.9% w/v) and fructose (23.1% w/v); all mice remained on this diet throughout the study protocol. […] The vehicle control group received water without 2-HOBA (with glucose and fructose). Body weight and food intake were measured weekly. At ˜23 wks of age, all animals underwent a glucose tolerance test (GTT) and MRI imaging to assess hepatic fat. For the GTT, animals were fasted for 12 hours and then glucose (2 g/kg bw of a 100 mg/mL glucose in sterile water) was administered by oral gavage. Blood was sampled at 0, 15, 30, 45, 60, 90, and 120 minutes after glucose administration and area under the curve was calculated. Animals were sacrificed at 24 wks of age (12 weeks of 2-HOBA or vehicle treatment). Tissues and serum were collected for analysis.
Serum levels of glucose, alanine transaminase, and aspartate transaminase were measured. […] Significance was set at α=0.05.

HepaRG cells = test: Ethanol exposure of HepaRG hepatocytes after 2-HOBA pre-treatment; assay type: cell-based, human
mouse hepatocytes = test: Oxidant mediated cell death induced by t-butylhydroperoxide; assay type: cell-based; conditions: FIG. 3
From the text: There is considerable interest in identifying appropriate therapeutic interventions aimed at inhibiting the inflammatory processes and interrupting the immunogenic pathways associated with ALD.
This is a remarkable finding given the fact the pathogenesis of oxidative injury is quite complex and multifaceted. […] Obviously, the efficacy of 2-HOBA depends on its accumulation in target tissues, and this was recently supported by pharmacokinetic studies in an in vivo mouse model. […] The levels in the liver were about 10 times higher than in plasma.

[1] = 1, 3, and 10 g/L for 7 days; cited from earlier work
[2] = 2-HOBA + ETOH, 2-HOBA 1.0 g/L, 14-day pretreatment
[3] = 2-HOBA + MD, 2-HOBA 1.0 g/L, 14-day pretreatment
[4] = 1 g/L in drinking water, 6 weeks, vs vehicle

NCc1ccccc1O [2-HOBA, 2-Hydroxybenzylamine]
inhibition of cyclooxygenase enzymes (cyclooxygenase enzymes): does not inhibit | body weight (C57/BL6J mice; 0.5 g/L 2-HOBA in LDLD): not significantly impacted | food intake (C57/BL6J mice; 0.5 g/L 2-HOBA in LDLD): not significantly impacted | increases in serum ALT (C57/BL6J mice; 2-HOBA 0.5 g/L): did not attenuate | increases in serum AST (C57/BL6J mice; 2-HOBA 0.5 g/L): did not attenuate | hepatic isofurans (IsoF) (C57/BL6J mice; 2-HOBA 1.0 g/L + ETOH, FIG. 8): significant reductions; also recorded: ameliorated | hepatic isoprostanes (IsoP) (C57/BL6J mice; 2-HOBA 1.0 g/L + ETOH, FIG. 8): significant reductions; also recorded: ameliorated | kidney isoprostane levels (C57/BL6J mice; 2-HOBA 1.0 g/L + ETOH, P<0.05 versus Con+ETOH): 1.3 ± 0.1 ng/g | Basophils (C57/BL6J mice; 2-HOBA + ETOH): 1.27 ± 0.26^# x10^3/μl | WBC (C57/BL6J mice; 2-HOBA + ETOH): 3.11 ± 0.66 x10^3/μl | eosinophils, % of WBC (C57/BL6J mice; 2-HOBA + ETOH): 2.71 ± 0.46% | lymphocytes, % of WBC (C57/BL6J mice; 2-HOBA + ETOH): 50.4 ± 4.59% | monocytes, % of WBC (C57/BL6J mice; 2-HOBA + ETOH): 6.33 ± 1.11% | ALT (C57/BL6J mice; 2-HOBA + ETOH, 2-HOBA 0.5 g/L): 443.7 ± 66.2 U/L | AST (C57/BL6J mice; 2-HOBA + ETOH, 2-HOBA 0.5 g/L): 1725.0 ± 300.2 U/L | BUN (blood urea nitrogen) (C57/BL6J mice; 2-HOBA + ETOH, 2-HOBA 1.0 g/L): 22.6 ± 1.7 mg/dL | CRE (creatinine) (C57/BL6J mice; 2-HOBA + ETOH, 2-HOBA 1.0 g/L): 0.3 ± 0.04 mg/dL | ALT (C57/BL6J mice; [2]): 164.4±20.8 U/L | AST (C57/BL6J mice; [2]): 676.6±86.7 U/L | WBC (C57/BL6J mice; 2-HOBA + MD (maltodextrin)): 6.08 ± 1.05 x10^3/μl | Basophils (C57/BL6J mice; 2-HOBA + MD): 0.60 ± 0.14 x10^3/μl | eosinophils, % of WBC (C57/BL6J mice; 2-HOBA + MD): 1.79 ± 0.4% | lymphocytes, % of WBC (C57/BL6J mice; 2-HOBA + MD): 58.1 ± 5.45% | monocytes, % of WBC (C57/BL6J mice; 2-HOBA + MD): 6.66 ± 0.92% | ALT (C57/BL6J mice; 2-HOBA + MD, 2-HOBA 0.5 g/L): 54.3 ± 20.1 U/L | AST (C57/BL6J mice; 2-HOBA + MD, 2-HOBA 0.5 g/L): 566.5 ± 34.1 U/L | BUN (blood urea nitrogen) (C57/BL6J mice; 2-HOBA + MD, 2-HOBA 1.0 g/L): 34.6 ± 2.9 mg/dL | CRE (creatinine) (C57/BL6J mice; 2-HOBA + MD, 2-HOBA 1.0 g/L): 0.3 ± 0.05 mg/dL | ALT (C57/BL6J mice; [3]): 127.5 ± 78.59 U/L | AST (C57/BL6J mice; [3]): 693.6 ± 173.1 U/L | hepatic triglyceride content (C57/BL6J mice; ETOH-challenged mice pre-treated with 2-HOBA 1.0 g/L): trended to be lower | ethanol responses: reduced white blood cell and lymphocyte counts, increased eosinophil and basophil counts (C57/BL6J mice; ethanol relative to maltodextrin feeding, 0.5 g/L 2-HOBA): not observed | kidney isoprostane formation (C57/BL6J mice; pre-treatment 14 days at 1.0 g/L): decreased | liver injury (elevated γ-KAs and liver function enzymes) upon ethanol exposure (C57/BL6J mice; pre-treatment with 2-HOBA 1.0 mg/ml (1.0 g/L), 14 days): significantly reduces; also recorded: reduced | oxidant mediated cell death (HepG2 cells): protective effect | liver weight (DIAMOND mice; FIGS. 15-16): trend for a reduction | liver enzyme ALT (DIAMOND mice; serum, FIG. 16H): significant reduction | liver enzyme AST (DIAMOND mice; serum, FIG. 16I): significant reduction | reactive oxygen species formation (HepaRG cells; 24 hr pre-treatment 0, 250, 500 and 1000 μM, ethanol 0-200 mM, 24 hr, FIG. 4A): did not affect | cell death by ethanol (HepaRG cells; 24 hr pre-treatment 0, 250, 500 and 1000 μM, ethanol 0-200 mM, 24 hr, FIG. 4B): almost completely prevented | ALT levels in culture media (HepaRG cells; 24 hr pre-treatment 0, 250, 500 and 1000 μM, ethanol 0-200 mM, 24 hr, FIG. 5A): near normalization | AST levels in culture media (HepaRG cells; 24 hr pre-treatment 0, 250, 500 and 1000 μM, ethanol 0-200 mM, 24 hr, FIG. 5B): near normalization | intensity of ~18 kD anti-D11 cross-reactive (γ-KA adducted) band (HepaRG cells; pre-treatment 250 or 500 μM for 24 hr, ethanol, SDS-PAGE, D11 ScFv, FIG. 6): restored to levels observed in untreated controls | cell death induced by t-butylhydroperoxide (tBHP) (mouse hepatocytes): almost completely prevented | levels in the liver relative to plasma [1]: about 10 times | liver levels of 2-HOBA [1]: dose-dependent increases | plasma levels of 2-HOBA [1]: dose-dependent increases | ALT (STAM mice; [4]): trending towards reduction | insulin (STAM mice; [4]): trending towards reduction | lipids (STAM mice; [4]): trending towards reduction | liver to body weight ratios (STAM mice; [4]): significantly reduced | liver weight (STAM mice; [4]): significantly reduced | serum isoprostanes (STAM mice; [4]): significantly reduced | NAFLD severity (STAM mice; FIG. 12): reduce | NALP1 (STAM mice; liver): decrease | expression of pyruvate dehydrogenase kinase 4 (pdk4) (STAM mice; liver): significantly decreased | signaling through FOXO1 (STAM mice; liver immunoblot): without significantly altering | AKT phosphorylation (STAM mice; liver immunoblot, FIG. 13): dramatically increased | GSK30 phosphorylation (STAM mice; liver immunoblot, FIG. 13): dramatically increased | signaling through ERK (STAM mice; liver immunoblot, FIG. 13): without significantly altering | signaling through mTOR (STAM mice; liver immunoblot, FIG. 13): without significantly altering | markers of hepatic insulin sensitivity (STAM mice; mouse, in vivo): restores | NLRP1-inflammasome activation (STAM mice; oral 2-HOBA administration): blocked
